Data reported in article PMC8362126, “Proteolysis Targeting Chimera (PROTAC) for Macrophage Migration Inhibitory Factor (MIF) Has Anti‐Proliferative Activity in Lung Cancer Cells” (Angewandte Chemie (International Ed. in English), 2021).

Assays:
MIF [1] = target: T1, MIF (Homo sapiens, UniProt P14174); test: MIF immunofluorescence staining, confocal microscopy; assay type: cell-based; design: endogenous in cells; host or cells: A549 (ATCC CCL-185); conditions: A549 cells, 1 μM, 12 hours
T1 sequence (P14174 2-115 limits assumed): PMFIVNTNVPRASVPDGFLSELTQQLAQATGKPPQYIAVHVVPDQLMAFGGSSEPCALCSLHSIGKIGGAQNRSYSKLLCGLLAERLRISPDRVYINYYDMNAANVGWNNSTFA
From the text: Since PROTACs are relatively large heterobifunctional molecules, the efficacy of these compounds may be limited by poor cell permeability.[47] In order to estimate the cellular uptake of PROTAC MD13, the intrinsic fluorescence properties of the pomalidomide part of MD13 were employed for visualization of its subcellular localization. […] In parallel, the subcellular localization of MIF and its decrease in situ upon MD13 treatment was visualized by confocal fluorescence microscopy using a fluorescent secondary antibody.
S5. Subcellular colocalization study
To visualize the intracellular location of MD13 and MIF protein, immunofluorescence staining was applied. A549 cells were seeded on glass coverslips in a 6-well plate at a density of 1x10^5 cells per well. After overnight incubation, cells were treated with 1 µM MD13 for 1 hour to study the internalization of MD13 or 12 hours to study the degradation of MIF protein.
The cells with 1-hour treatment were fixed with methanol before coverslips were mounted onto slides with anti-fading mounting medium with DAPI stain (Invitrogen, Waltham, MA. USA).
To visualize MIF protein, cells after 12-hour treatment were fixed with methanol and then unspecific binding was blocked with blocking buffer (1% BSA, 22.52 mg/mL glycine in 0.1%PBST). […]
USA). […] The pictures were acquired using a Leica SP8 confocal laser scanning microscope and analyzed by ImageJ. […]

MIF [2] = target: T1, MIF; test: MIF degradation in HEK293 cells, western-blot; assay type: cell-based; design: endogenous in cells; conditions: 200 nM

O=C1CCC(N2C(=O)c3cccc(NCCCCCCCC(=O)Nc4ccc(N5Cc6ccc(O)cc6OC5=O)cc4)c3C2=O)C(=O)N1 (centres unmarked) [MD13]
MIF depletion in situ (MIF [1]): significantly depleted MIF | MIF degradation (MIF [2]): more than 90%
